In patent publication US10392419B2, “Modified cyclic dinucleotide compounds” (Boehringer Ingelheim International GmbH, priority 2017, dated 2019):
pEC50: −log10 of the molar value.

Legend:
[1] = target: T1, human STING protein in THP1-Blue ISG cells (Homo sapiens, UniProt Q86WV6, G230A/H232R/R293Q/R71H); assay: In vitro cytokine induction, THP1-Blue ISG reporter cell assay (IRF-inducible SEAP); type: cell-based; settings: 24 hours incubation, SEAP OD at 620 nm
T1 construct: endogenous STING levels from the parental, unmodified THP1-Blue ISG cell lines; endogenous in cells; host or cells: THP1-Blue ISG cells
Text: In Vitro Cytokine Induction
Activation of the STING protein expressed in THP1 cells results in an increase of interferon production. By the stable integration of an interferon regulatory factor (IRF)-inducible SEAP (secreted embryonic alkaline phosphatase) reporter construct the functional interferon signaling pathway can be monitored. Using Invivogen's QUANTI-Blue™ colorimetric enzyme assay and a suitable optical density (OD) reader the activity of SEAP can be detected and quantified. This technique could be used to characterize pharmacological modification of the STING protein.
Measurements of SEAP activity were performed in THP1-Blue ISG cells stably expressing the human STING protein and the IRF-inducible SEAP reporter construct. Cells were cultivated for expansion in RPMI1640 medium with 10% fetal calf serum, 50 μg/ml Penicillin-Streptomycin, 100 μg/ml Zeocin, and 100 μg/ml Normocin in a 37°, 95% humidity and 5% CO2 incubator. Assay-ready cells were stored as frozen stocks.
In preparation for the assay, the cells were thawed in Zeocin-/Normocin-free medium and were distributed into the assay plates with a density of 15000 cells/15 μL per well. Compounds were prepared by an 8- or 16-point serial dilution in 50% aqueous DMSO and a final dilution step into medium to ensure a final DMSO concentration of 0.5% in the assay. 5 μL of diluted compounds plus 5 μL medium were added to the plates, followed by a 24 hours incubation at 37° C.
At the day of the assay, 75 μl per well of Quanti-Blue reagent was added to all wells of the plate and the plate was incubated another 30 minutes at 37° C. The OD at 620 nm was measured on the EnVision reader (PerkinElmer). EC50 values and Hill slopes were derived from 8- or 16-point four parametric non-linear curve fittings with the Megalab software (Boehringer Ingelheim) using the OD at 620 nm.

[2] = target: Human STING (hSTING, residues 155-341, wild-type sequence) (Homo sapiens, UniProt Q86WV6, H232R); assay: hSTING binding by differential scanning fluorimetry (DSF); settings: for binding to human STING compared to the other diastereomer(s) of the same Example / thermal shift compared to ribose Example 5/Compound 23 in WO 2016/145102: in words
Experimental: Differential Scanning Fluorimetry (DSF)
Assay buffer: 20 mM Tris, 150 mM NaCl pH7.5
Target Protein: Human STING (hSTING, residues 155-341, wild-type sequence with N-terminal His8-tag and TEV-cleavage site, MW: 23601.5 Da)
Protein stock solution: c=309 μM stock solution in assay buffer
Final Assay concentrations of test compounds: 100 μM, 3 μM target protein, “5×” SYPR Orange
1) Compound stock solutions and dilutions thereof were prepared in assay buffer
2) 5 μl fluorescent dye stock solution (5000×SYPRO Orange) was mixed with 50 μl target protein (309 μM) and 945 μl buffer.
3) 2 μl of this protein-dye-mixture (25×SYPRO Orange and 15 μM Protein) was added to 8 μl compound solution.
4) Certain well positions were used as negative control.
5) The plates were prepared for duplicate measurement and centrifuged for 2 min at 1000 g.
6) In the measurement, 160 cycles of 0.5° C. were used (temperature ramp 15 s/cycle, 15° C. to 95° C.).
Data analysis: The dissociation curves were processed in Bio-Rad CFX Manager. Peak type was set to “negative”. In the case of Examples 1.1, 2.1, 3.1 and 4.1, at least two Tm measurements were averaged.

[3] = 100 μM test compound, 3 μM target protein, Sodium Salt
[4] = 100 μM test compound, 3 μM target protein

Human STING (hSTING, residues 155-341, wild-type sequence), sequence (Q86WV6 155-341 H232R limits assumed): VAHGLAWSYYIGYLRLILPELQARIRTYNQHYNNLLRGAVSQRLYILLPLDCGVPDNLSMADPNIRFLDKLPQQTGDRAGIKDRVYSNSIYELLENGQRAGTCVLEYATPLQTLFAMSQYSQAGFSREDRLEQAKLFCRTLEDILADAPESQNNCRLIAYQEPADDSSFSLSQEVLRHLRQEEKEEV
T1 sequence (Q86WV6 whole entry R71H/G230A/H232R/R293Q): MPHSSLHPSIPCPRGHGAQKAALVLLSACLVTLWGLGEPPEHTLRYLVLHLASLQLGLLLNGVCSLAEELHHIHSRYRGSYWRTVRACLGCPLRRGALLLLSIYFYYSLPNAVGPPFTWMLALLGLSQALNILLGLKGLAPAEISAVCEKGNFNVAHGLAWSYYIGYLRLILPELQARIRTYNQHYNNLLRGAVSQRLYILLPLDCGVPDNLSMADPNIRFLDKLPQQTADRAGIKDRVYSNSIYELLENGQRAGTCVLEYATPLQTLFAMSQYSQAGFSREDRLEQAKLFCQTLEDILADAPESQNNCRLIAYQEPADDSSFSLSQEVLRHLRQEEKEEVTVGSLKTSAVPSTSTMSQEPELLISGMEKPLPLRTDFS

| pEC50 [1] | ΔTm at 100 µM ([2]; 100 μM test compound, 3 μM target protein, read-out: hSTING Tm shift) [°C] | hSTING Tm shift [2, 4] [°C] | Compound | binding to human STING compared to the other diastereomer(s) of the same Example [2] | thermal shift compared to ribose Example 5/Compound 23 in WO 2016/145102 [2] | pEC50 ([1]; Sodium Salt) | hSTING Tm shift [2, 3] [°C] |
| --- | --- | --- | --- | --- | --- | --- | --- |
| 6.96 | 27.6 |  | Nc1ncnc2c1ncn2[C@@H]1O[C@@H]2COP(=O)(S)O[C@H]3[C@H]4OC[C@@]3(COP(=O)(S)O[C@H]2[C@H]1F)O[C@H]4n1cnc2c(N)ncnc21 (single isomer, unassigned) [Example 1.1, Cyclic (LNA-adenosine-(3′→5′)-phosphorothioate-2′-F-2′-deoxyadenosine-(3′→5′)-phosphorothioate)] | improved binding to human STING as compared to Example 1.2 | significantly larger thermal shifts |  |  |
|  |  |  | Cyclic (LNA-adenosine-(3′→5′)-phosphorothioate-2′-F-2′-deoxyguanosine-(3′→5′)-phosphorothioate), Sodium Salt [Example 2.2] |  |  | 7.30 | 21.8 |
|  |  |  | Cyclic (LNA-adenosine-(3′→5′)-phosphorothioate-2′-F-2′-deoxyinosine-(3′→5′)-phosphorothioate), Sodium Salt [Example 4.2] |  |  | 6.96 | 21.4 |
|  |  |  | Cyclic (LNA-guanosine-(3′→5′)-phosphorothioate-2′-F-2′-deoxyadenosine-(3′→5′)-phosphorothioate), Sodium Salt [Example 3.2] |  |  | 7.15 | 22.4 |
|  |  |  | Cyclic (LNA-guanosine-(3′→5′)-phosphorothioate-2′-F-2′-deoxyadenosine-(3′→5′)-phosphorothioate), Sodium Salt [Example 3.3] |  |  | 6.89 | 21.6 |
|  |  |  | Cyclic (LNA-guanosine-(3′→5′)-phosphorothioate-2′-F-2′-deoxyadenosine-(3′→5′)-phosphorothioate), Sodium Salt [Example 3.1] | improved binding to human STING as compared to other Example 3 diastereomers | significantly larger thermal shifts | 6.82 | 30.7 |
|  |  |  | Cyclic (LNA-adenosine-(3′→5′)-phosphorothioate-2′-F-2′-deoxyguanosine-(3′→5′)-phosphorothioate), Sodium Salt [Example 2.1] | improved binding to human STING as compared to Example 2.2 | significantly larger thermal shifts | 6.85 | 30.3 |
|  |  | 21.1 | Nc1nc2c(ncn2C2OC3COP(O)(=S)OC4C(COP(O)(=S)OC3C2F)OC(n2cnc3c(N)ncnc32)C4O)c(=O)[nH]1 (centres unmarked) [Example 5 Compound 23 in WO 2016/145102, 3′3′-RR-(2′F-G)(A), reference compound] |  |  |  |  |
| 7.22 |  | 21.0 | Nc1ncnc2c1ncn2[C@@H]1O[C@@H]2COP(=O)(S)O[C@H]3[C@H]4OC[C@@]3(COP(=O)(S)O[C@H]2[C@H]1F)O[C@H]4n1cnc2c(N)ncnc21 (single isomer, unassigned) [Example 1.2, Cyclic (LNA-adenosine-(3′→5′)-phosphorothioate-2′-F-2′-deoxyadenosine-(3′→5′)-phosphorothioate)] |  |  |  |  |
|  |  |  | Cyclic (LNA-guanosine-(3′→5′)-phosphorothioate-2′-F-2′-deoxyadenosine-(3′→5′)-phosphorothioate), Sodium Salt [Example 3.4] |  |  | 5.70 | 10.9 |
|  |  |  | Cyclic (LNA-adenosine-(3′→5′)-phosphorothioate-2′-F-2′-deoxyinosine-(3′→5′)-phosphorothioate), Sodium Salt [Example 4.1] | improved binding to human STING as compared to Example 4.2 | significantly larger thermal shifts | 6.77 | 30.0 |
